Laboratory results published in patent US11986532B2 (Arvinas Operations, Inc., priority 2021, dated 2024).
Where two headings read alike, the source gives them in different places.

Molecular target: T1, BCL6 (Homo sapiens, UniProt P41182)
T1 construct: endogenous in cells; host or cells: T47D breast cancer epithelial cells
Test: Immunofluorescence protocol for high content imaging of BCL6 (degradation) in T47D cells, 3 days compound treatment
Format: cell-based
Conditions: for DC50: read-out: Mean DC50 (nM)* category; for Dmax: read-out: Mean Dmax (%)** category
Method in brief: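 Remaining BCL6 in breast cancer T47D cells was measured by high-content immunofluorescence imaging after 3 days of treatment with serially diluted compound (top 0.1 or 1 μM). Nuclei were stained with Hoechst and cells with CellMask.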

[1] = T47D cells, 3 days compound treatment

DC50 [1] | Dmax [1] | Structure (SMILES) | Dmax (T47D) | DC50
< 10 nM | < 50% | CNC(=O)COc1cc2cc(Nc3nc(N4CCC(CN5CC6(CCN(c7ccc8c(c7OC)CN(C7CCC(=O)NC7=O)C8=O)CC6)C5)CC4)ncc3Cl)ccc2n(C(C)C)c1=O (stereo not drawn) [Compound 88, 2-{[6-({5-chloro-2-[4-({7-[2-(2,6-dioxopiperidin-3-yl)-4-methoxy-1-oxo-2,3-dihydro-1H-isoindol-5-yl]-2,7-diazaspiro[3.5]nonan-2-yl}methyl)piperidin-1-yl]pyrimidin-4-yl}amino)-2-oxo-1-(propan-2-yl)-1,2-dihydroquinolin-3-yl]oxy}-N-methylacetamide] |  | 
< 10 nM | ≥ 70% | CNC(=O)COc1cc2cc(Nc3nc(N4CCN(C(C)(C)C5CCN(c6ccc7c(c6)CN(C6CCC(=O)NC6=O)C7=O)CC5)CC4)ncc3Cl)ccc2n(C(C)C)c1=O (stereo not drawn) [Compound 13, 2-{[6-({5-chloro-2-[4-(2-{1-[2-(2,6-dioxopiperidin-3-yl)-1-oxo-2,3-dihydro-1H-isoindol-5-yl]piperidin-4-yl}propan-2-yl)piperazin-1-yl]pyrimidin-4-yl}amino)-2-oxo-1-(propan-2-yl)-1,2-dihydroquinolin-3-yl]oxy}-N-methylacetamide] |  | 
< 10 nM | ≥ 70% | CNC(=O)COc1cc2cc(Nc3nc(N4CCC(C(C)(C)N5CCC6(CC5)CN(c5ccc7c(c5)CN(C5CCC(=O)NC5=O)C7=O)C6)CC4)ncc3Cl)ccc2n(C(C)C)c1=O (stereo not drawn) [Compound 58, 2-{[6-({5-chloro-2-[4-(2-{2-[2-(2,6-dioxopiperidin-3-yl)-1-oxo-2,3-dihydro-1H-isoindol-5-yl]-2,7-diazaspiro[3.5]nonan-7-yl}propan-2-yl)piperidin-1-yl]pyrimidin-4-yl}amino)-2-oxo-1-(propan-2-yl)-1,2-dihydroquinolin-3-yl]oxy}-N-methylacetamide] |  | 
< 10 nM | 50 to 70% | CNC(=O)COc1cc2cc(Nc3nc(N4CCN(CC5CCN(c6cc(F)c7c(c6)CN(C6CCC(=O)NC6=O)C7=O)CC5)CC4)ncc3Cl)ccc2n(C(C)C)c1=O (stereo not drawn) [Compound 18, 2-{[6-({5-chloro-2-[4-({1-[2-(2,6-dioxopiperidin-3-yl)-7-fluoro-1-oxo-2,3-dihydro-1H-isoindol-5-yl]piperidin-4-yl}methyl)piperazin-1-yl]pyrimidin-4-yl}amino)-2-oxo-1-(propan-2-yl)-1,2-dihydroquinolin-3-yl]oxy}-N-methylacetamide] |  | 

The remaining lines, values behind:

Structure (SMILES) | DC50 [1] | Dmax [1] | Dmax (T47D) | DC50
CNC(=O)COc1cc2cc(Nc3nc(N4CCC(O[C@H]5C[C@H](N6CCC7(CCN(c8ccc9c(c8)C(=O)N(C8CCC(=O)NC8=O)C9=O)CC7)C6)C5)CC4)ncc3Cl)ccc2n(C(C)C)c1=O (stereo partly drawn) [Compound 362, 2-({6-[(5-chloro-2-{4-[(1r,3r)-3-{8-[2-(2,6-dioxopiperidin-3-yl)-1,3-dioxo-2,3-dihydro-1H-isoindol-5-yl]-2,8-diazaspiro [4.5]decan-2-yl}cyclobutoxy]piperidin-1-yl}pyrimidin-4-yl)amino]-2-oxo-1-(propan-2-yl)-1,2-dihydroquinolin-3-yl}oxy)-N-methylacetamide] |  |  | ≥ 70% | 10 to 50 nM
CNC(=O)COc1cc2cc(Nc3nc(N4CCC(F)(CN5CCC6(CC5)CCN(c5c(F)ccc7c5C(=O)N(C5CCC(=O)NC5=O)C7)CC6)CC4)ncc3Cl)ccc2n(C(C)C)c1=O (stereo not drawn) [Compound 93, 2-{[6-({5-chloro-2-[4-({9-[2-(2,6-dioxopiperidin-3-yl)-5-fluoro-3-oxo-2,3-dihydro-1H-isoindol-4-yl]-3,9-diazaspiro [5.5]undecan-3-yl}methyl)-4-fluoropiperidin-1-yl]pyrimidin-4-yl}amino)-2-oxo-1-(propan-2-yl)-1,2-dihydroquinolin-3-yl]oxy}-N-methylacetamide] | ≥ 100 nM | ≥ 70% |  | 
CNC(=O)COc1cc2cc(Nc3nc(N4CCCCC4)ncc3Cl)ccc2n(CCOc2ccc3c(c2)C(=O)N(C2CCC(=O)NC2=O)C3=O)c1=O (stereo not drawn) [Compound 29, 2-[(6-{[5-chloro-2-(piperidin-1-yl)pyrimidin-4-yl]amino}-1-(2-{[2-(2,6-dioxopiperidin-3-yl)-1,3-dioxo-2,3-dihydro-1H-isoindol-5-yl]oxy}ethyl)-2-oxo-1,2-dihydroquinolin-3-yl)oxy]-N-methylacetamide] | 10 to 50 nM | 50 to 70% |  | 
CNC(=O)COc1cc2cc(Nc3nc(N4CCC(O[C@H]5C[C@H](N6CCN(c7ccc8c(c7C)C(=O)N(C7CCC(=O)NC7=O)C8=O)C[C@@H]6C)C5)CC4)ncc3Cl)ccc2n(C(C)C)c1=O (stereo partly drawn) [Compound 194, 2-({6-[(5-chloro-2-{4-[(1r,3r)-3-[(2S)-4-[2-(2,6-dioxopiperidin-3-yl)-4-methyl-1,3-dioxo-2,3-dihydro-1H-isoindol-5-yl]-2-methylpiperazin-1-yl]cyclobutoxy]piperidin-1-yl}pyrimidin-4-yl)amino]-2-oxo-1-(propan-2-yl)-1,2-dihydroquinolin-3-yl}oxy)-N-methylacetamide] | < 10 nM | ≥ 70% |  | 
CNC(=O)COc1cc2cc(Nc3nc(N4CCC(CN5CCC6(CCN(c7c(F)ccc8c7C(=O)N(C7CCC(=O)NC7=O)C8=O)C6)C5)CC4)ncc3Cl)ccc2n(C(C)C)c1=O (stereo not drawn) [Compound 139, 2-{[6-({5-chloro-2-[4-({7-[2-(2,6-dioxopiperidin-3-yl)-5-fluoro-1,3-dioxo-2,3-dihydro-1H-isoindol-4-yl]-2,7-diazaspiro[4.4]nonan-2-yl}methyl)piperidin-1-yl]pyrimidin-4-yl}amino)-2-oxo-1-(propan-2-yl)-1,2-dihydroquinolin-3-yl]oxy}-N-methylacetamide] | < 10 nM | 50 to 70% |  | 
CNC(=O)COc1cc2cc(Nc3nc(N4CCC(O[C@H]5C[C@H](N6C[C@@H](C)N(c7ccc8c(c7)CN(C7CCC(=O)NC7=O)C8=O)[C@H](C)C6)C5)CC4)ncc3Cl)ccc2n(C(C)C)c1=O (relative stereo) [Compound 179, 2-({6-[(5-chloro-2-{4-[(1r,3r)-3-[(3R*,5R*)-4-[2-(2,6-dioxopiperidin-3-yl)-1-oxo-2,3-dihydro-1H-isoindol-5-yl]-3,5-dimethylpiperazin-1-yl]cyclobutoxy]piperidin-1-yl}pyrimidin-4-yl)amino]-2-oxo-1-(propan-2-yl)-1,2-dihydroquinolin-3-yl}oxy)-N-methylacetamide] | < 10 nM | ≥ 70% |  | 
CNC(=O)COc1cc2cc(Nc3nc(N4CCC(CN5CCC6(CC5)CN(c5ccc7c(c5F)CN(C5CCC(=O)NC5=O)C7=O)C6(C)C)CC4)ncc3Cl)ccc2n(C(C)C)c1=O (stereo not drawn) [Compound 162, 2-{[6-({5-chloro-2-[4-({2-[2-(2,6-dioxopiperidin-3-yl)-4-fluoro-1-oxo-2,3-dihydro-1H-isoindol-5-yl]-1,1-dimethyl-2,7-diazaspiro[3.5]nonan-7-yl}methyl)piperidin-1-yl]pyrimidin-4-yl}amino)-2-oxo-1-(propan-2-yl)-1,2-dihydroquinolin-3-yl]oxy}-N-methylacetamide] | < 10 nM | ≥ 70% |  | 
CNC(=O)COc1cc2cc(Nc3nc(N4CCC(O[C@H]5C[C@H](N6CCN(c7ccc8c(c7Cl)C(=O)N(C7CCC(=O)NC7=O)C8=O)CC6)C5)CC4)ncc3Cl)ccc2n(C(C)C)c1=O (stereo partly drawn) [Compound 412, 2-({6-[(5-chloro-2-{4-[(1r,3r)-3-{4-[4-chloro-2-(2,6-dioxopiperidin-3-yl)-1,3-dioxo-2,3-dihydro-1H-isoindol-5-yl]piperazin-1-yl}cyclobutoxy]piperidin-1-yl}pyrimidin-4-yl)amino]-2-oxo-1-(propan-2-yl)-1,2-dihydroquinolin-3-yl}oxy)-N-methylacetamide] |  |  | 50 to 70% | 10 to 50 nM
